In patent publication US8110675B2, “TP expression-inhibiting compound and siRNA sequence thereof” (Chang Gung University, priority 2009, dated 2012):

Tested on: NPC-TW02 and NPC-TW02/TP cells
Assay: cytotoxicity assay with 5′-DFUR, apoptosis by annexin V flow cytometry
Format: cell-based
Details: TP over-expression, 72 hours
Procedure: Refer to FIG. 1A and FIG. 1B. A cell line of nasopharyngeal cancer NPC-TW02/TP is established to stably express exogenous TP. First, the TP-expression carrier pcDNA3.1-PT is transfected to the cell line. Next, the cell line is screened and then cultivated in a culture solution having 500 μg/ml G418. Next is performed a cytotoxicity assay, wherein NPC-TW02 and NPC-TW02/TP are respectively processed with 5′-DFUR (Sigma-Aldrich, St. Louis, Mo., USA). Next, the cell lines are further cultivated for 72 hours. Next, the cell membranes are everted to expose phosphatidylserine. Then, phosphatidylserine is analyzed with the Vybrant® Apoptosis Assay Kit #2 (a product of Invitrogen).
Firstly, 2×10^5 cells are taken out and washed with PBS. Next, a buffer solution (10 mM HEPES, 140 mM NaCl, 2.5 mM CaCl2, pH 7.4) is used to adjust the solution to have a cell concentration of 2×10^6/mL. Next, 5 μl Alexa Fluor® 488 annexin V is added into 100 μl cell suspension, and then the cell suspension reacts at an ambient temperature for 15 minutes. Next, the cell specimens (10000 events) are analyzed with a flow cytometer (a product of Becton Dickinson), as shown in FIG. 3. […] Then, phosphatidylserine is analyzed with the Vybrant® Apoptosis Assay Kit #2 (a product of Invitrogen).

C[C@H]1O[C@@H](n2cc(F)c(=O)[nH]c2=O)[C@H](O)[C@@H]1O [5′-DFUR, 5-fluoro-5′-deoxyuridine]
sensitivity of TP over-expressing nasopharyngeal cancer cells / induction of apoptosis: can induce the apoptosis of cancer cells
